Test results as given in patent US20100227853A1, “INHIBITORS OF CYCLIC AMP PHOSPHODIESTERASES” (Trustees of Boston College, priority 2008, published 2010).
Where “and” joins values, the source holds several entries; their conditions need not be identical. Identical values can stand only once. Entries after “also recorded” stand apart in the source; their conditions may differ. Values belong to the compound of their own block, whether it stands above or below them.

What was measured:
[1] = test system: PDE4A, PDE4B, PDE4D, PDE7A, PDE7B, PDE8A, PDE3A; assay: Summary of PDE inhibitor profile; set-up: key: (1): Weak PDE7A inhibitor; (2): Strong PDE7A inhibitor; (3): Lillte/no activity under conditions used; (4): Weak PDE4A inhibitor; settings: overall classification, Table 18 footnotes
PDE7A = PDE7A (Homo sapiens, UniProt Q13946); assay: cAMP response in yeast strain expressing PDE7A; assay type: cell-based; set-up: targets used in the assays are full-length proteins (as opposed to simply the catalytic domain); expressed in transfected cells; host or cells: Schizosaccharomyces pombe, PDE gene integrated in place of cgs2; settings: PDE 7A; relative to BRL50481
CLL = CLL assay; assay type: cell-based
U937 cells = assay: TNF alpha release by LPS-treated U937 cells; assay type: cell-based
SIVmac239 = assay: antiviral activity, SIV p27 ELISA in infected PBMC; assay type: cell-based, rhesus macaques; settings: for reduction in viral load: treatment on Day 1 and Day 3, SIV p27 ELISA
Experimental: PBMC cells were isolated from uninfected rhesus macaques and mitogen stimulated (PHA). The cells were then incubated with SIVmac239 for 2 hours, following which they were washed to remove any free virus. BC54 was then added to the infected cells. Fresh compound was added after 3 days. The antiviral activity was measured by SIV p27 ELISA on day 3 and 7, while the cell viability was determined on day 7 by MTT assay. The treatment of cells on Day 1 and Day 3, leads to a 30-fold and 100-fold reduction in viral load on Days 4 and 7, respectively.

PBMC cells = assay: proliferation and viability of PBMC cells; assay type: cell-based
Text: FIGS. 8A, 8B and 8C show the effect of BC54 on the proliferation and viability of PBMC cells.

[2] = test system: transplanted tumors (lymphomas); assay: in vivo assay in mice with transplanted tumors (lymphomas)
Experimental: FIGS. 7A and 7B show results of an in vivo assay of BC54 action.
A 7 day experiment was conducted to determine the effect of BC54 on mice having transplanted tumors (lymphomas). Drugs were given i.p. once a day in 60-100 ul of PBS. • 3 animals got just BC54—to assess toxicity • 3 animals injected with lymphoma and treated with BC54 • 3 animals—no treatment • 1 animal—CHOP 0.5 MTD
BC54 dose was 3 ul of 100 mM solution per mouse per injection. […]. […] After 7 days, the untreated mice were terminally ill. The group treated with BC54 looked better although they do show some clinical signs (hunched posture etc). […] Tumor load was evaluated in the spleen and in the peritoneal lymph nodes (FIG. 7).

[3] = test system: PDE4A, PDE4B, PDE4D, PDE7A, PDE7B, PDE8A, PDE3A; assay: Summary of PDE inhibitor profile
Lymphoma cells = assay: in vitro assay on lymphoma cells (24 hours, Hoechst stain, fsc/ssc); assay type: cell-based
Experimental: FIGS. 6A and 6B show the in vitro assay of BC54 action. Lymphoma cells are treated with the drug for 24 hours, then stained with Hoechst dye. The cells form a clearly defined population on the fsc/ssc dot plot. Vincristine treatment was used as a positive control. […] BC54 is referred to in the figure as S54.

PDE7B [4] = target: T1, PDE7B (Rattus norvegicus, UniProt A0A0G2JXU0); assay: in vitro enzyme assay of PDE7B activity in extracts from rat pulmonary endothelial cells; assay type: biochemical
T1 construct: endogenous in cells; host or cells: rat pulmonary endothelial cells (extract)
T1 sequence (A0A0G2JXU0 1-446): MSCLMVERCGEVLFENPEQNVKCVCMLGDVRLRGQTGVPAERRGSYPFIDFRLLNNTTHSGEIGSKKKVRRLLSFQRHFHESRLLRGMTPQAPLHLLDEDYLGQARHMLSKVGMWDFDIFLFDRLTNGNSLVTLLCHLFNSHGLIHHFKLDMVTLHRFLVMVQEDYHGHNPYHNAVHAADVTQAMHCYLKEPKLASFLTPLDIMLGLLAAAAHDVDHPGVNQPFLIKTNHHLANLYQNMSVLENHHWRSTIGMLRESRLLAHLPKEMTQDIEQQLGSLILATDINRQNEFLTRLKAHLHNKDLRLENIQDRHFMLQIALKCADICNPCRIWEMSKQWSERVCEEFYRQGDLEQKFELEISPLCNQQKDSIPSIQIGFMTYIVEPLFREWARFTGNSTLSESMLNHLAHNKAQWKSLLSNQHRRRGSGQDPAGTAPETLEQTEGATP
Text: FIG. 13 is the in vitro enzyme assays of PDE7B activity in extracts made from rat pulmonary endothelial cells.

PDE7B [5] = target: PDE7B (Homo sapiens, UniProt Q9NP56); assay: cAMP elevation in yeast PDE7B-expressing strain; assay type: cell-based; set-up: targets used in the assays are full-length proteins (as opposed to simply the catalytic domain); expressed in transfected cells; host or cells: Schizosaccharomyces pombe
Jurkat cells = assay: IL2 secretion by concanavalin A treated Jurkat cells; assay type: cell-based, human; settings: ConA 10 μg/ml, prostaglandin E2, 24 hours
Text: Jurkat cells, a human T cell lymphoblast-like cell line, increase expression of the cytokine IL2 in response to stimulation by concanavalin A (conA). This effect can be inhibited by elevated cAMP levels, although PDE4 inhibition alone appears to be insufficient to prevent IL2 induction (Kaminuma et al., Immunopharmacology, 1998 January; 38(3):247-52). However, the anti-inflammatory effect of PDE4 inhibitors can be detected using this assay by their ability to enhance the reduction of IL2 secretion by prostaglandin E2. IL2 levels are measured in Jurkat cells (5×10^5 cells/ml) stimulated by 10 μg/ml ConA in the presence of prostaglandin E2, with or without each test compound ([…]). After incubation at 37° C. for 24 hours, the resulting supernatant were collected and kept frozen at −70° C. until the time of assay. IL2 in the supernatants were measured by ELISA and the data is presented as a percentage of the PGE2 treated culture (FIG. 12).

Chain of PDE7A (Q13946 whole entry, the tested form may be a part): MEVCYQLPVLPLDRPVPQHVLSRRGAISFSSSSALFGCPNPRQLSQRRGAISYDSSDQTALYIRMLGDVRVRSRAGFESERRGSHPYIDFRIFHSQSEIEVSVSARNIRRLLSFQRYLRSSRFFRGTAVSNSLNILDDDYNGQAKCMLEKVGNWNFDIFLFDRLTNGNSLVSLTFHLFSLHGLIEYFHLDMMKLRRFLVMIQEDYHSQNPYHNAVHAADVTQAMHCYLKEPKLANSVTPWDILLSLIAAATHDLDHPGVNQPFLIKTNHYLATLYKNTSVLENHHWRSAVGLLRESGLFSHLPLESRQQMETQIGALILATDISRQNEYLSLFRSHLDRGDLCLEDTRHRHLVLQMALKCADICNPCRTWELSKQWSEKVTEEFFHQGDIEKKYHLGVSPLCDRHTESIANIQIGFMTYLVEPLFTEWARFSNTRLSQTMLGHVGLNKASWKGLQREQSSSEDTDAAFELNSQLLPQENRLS
Chain of PDE7B (Homo sapiens, UniProt Q9NP56) (Q9NP56 whole entry, species assumed, the tested form may be a part): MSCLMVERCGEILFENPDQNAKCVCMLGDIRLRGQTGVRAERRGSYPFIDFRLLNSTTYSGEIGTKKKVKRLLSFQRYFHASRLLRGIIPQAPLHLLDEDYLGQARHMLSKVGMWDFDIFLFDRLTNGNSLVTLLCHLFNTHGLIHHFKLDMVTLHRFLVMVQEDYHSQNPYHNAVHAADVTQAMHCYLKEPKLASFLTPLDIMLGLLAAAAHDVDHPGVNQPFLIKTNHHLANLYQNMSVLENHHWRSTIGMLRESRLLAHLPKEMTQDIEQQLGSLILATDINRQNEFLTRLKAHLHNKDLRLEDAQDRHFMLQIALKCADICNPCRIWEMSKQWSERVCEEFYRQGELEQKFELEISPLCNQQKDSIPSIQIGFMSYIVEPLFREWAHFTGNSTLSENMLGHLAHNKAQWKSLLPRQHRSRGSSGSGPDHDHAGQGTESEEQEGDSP

cAMP Response (% BRL50481) 7A (PDE7A): 89.00 % BRL50481
Structure (SMILES): COc1ccc2c(c1)C1(C)CCC(=O)CC1CC2 (single isomer, unassigned) [Compound 11]
PDE inhibitor profile (Table 18) [1]: 11 (3)

Structure (SMILES): CCOC(=O)c1cc2c(=O)n3ccccc3nc2n(C2CCCCC2)/c1=N/C(C)=O [BC54]
activity in CLL assay, in words (CLL): good activity
TNF alpha reduction, conclusion in words (U937 cells): good activity
efficacy in SIV cell culture, in words (SIVmac239): effective
reduction in viral load (SIVmac239; Day 4): 30 fold
reduction in viral load (SIVmac239; Day 7): 100 fold
toxicity to PBMC cells (proliferation and viability) (PBMC cells): not found to be very toxic
toxicity in mice ([2]; 3 ul of 100 mM solution per mouse per injection, i.p. once a day): no major signs of toxicity
spleen tumor burden ([2]; i.p. once a day, 7 days): No significant effect
tumor load in lymph nodes ([2]; i.p. once a day, 7 days): reduces the tumor load in lymph nodes
clinical appearance after 7 days ([2]; lymphoma-bearing mice): looked better
efficacy in mouse DLBCL model, in words ([2]; mouse, in vivo): effective
PDE inhibitor profile, in words [3]: good PDE4 and PDE7 combination inhibitor; also recorded: affects PDE4D, but is weaker than on other 4 s and 7 s
effect on PDE8A or PDE3A [3]: no effect
apoptosis of lymphoma cells, in words (Lymphoma cells): induces apoptosis
"live" population gone (Lymphoma cells; 24 hours treatment): ~100%

KI lower than that of BRL50481 (PDE7B [4]; PDE7B, rat pulmonary endothelial cell extracts): approximately 100 fold
Ki (PDE7B [4]; cell extracts, read-out: KI on PDE7 (PDE7B) from rat pulmonary endothelial cells): ~0.2 µM and 0.2 µM
cAMP in yeast PDE7B-expressing strain, in words (PDE7B [5]): induced cAMP elevation
Structure (SMILES): Cc1sc2ncnc(NC3CCCCC3)c2c1C [BC28]
TNF alpha reduction, conclusion in words (U937 cells): TNFα synergy with PDE4 inhibitors, though not as strong as for BC30
IL2 expression from Jurkat cells, in words (Jurkat cells): strong reduction
PDE inhibitor profile, in words [3]: potent PDE7B inhibitor
